For one cell line, relative viability results are on record in the supplement of paper PMC10307832.

Common to all, as to test: relative viability (nuclei count vs DMSO), 5 days (fraction); higher = more cells survive
Compound in the assay “AZD5582 + Lapatinib”: C[C@@H](C(=O)N[C@@H](C1CCCCC1)C(=O)N2CCC[C@H]2C(=O)N[C@@H]3[C@@H](CC4=CC=CC=C34)OCC#CC#CCO[C@@H]5CC6=CC=CC=C6[C@@H]5NC(=O)[C@@H]7CCCN7C(=O)[C@H](C8CCCCC8)NC(=O)[C@H](C)NC)NC [AZD5582] + CS(=O)(=O)CCNCc1ccc(-c2ccc3ncnc(Nc4ccc(OCc5cccc(F)c5)c(Cl)c4)c3c2)o1 [Lapatinib] (partner 2 µM)
In outline:
(§1)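 After 5 days of treatment, lung cancer cells in 1536-well plates were fixed and stained in a single step (final 0.05% Triton X-100, 1% formaldehyde, 1 ug/ml Hoechst) and their nuclei counted on 4× images. Treatment had been applied by pin tool the day after seeding as one drug alone or as a fixed anchor-drug dose with five library-drug doses (not always all listed) in √10 steps. Relative viability is the nuclei count of treated wells divided by that of vehicle wells, and values are medians of duplicate plates.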

Compound in the assay “AZD5582 + Crizotinib”: C[C@@H](C(=O)N[C@@H](C1CCCCC1)C(=O)N2CCC[C@H]2C(=O)N[C@@H]3[C@@H](CC4=CC=CC=C34)OCC#CC#CCO[C@@H]5CC6=CC=CC=C6[C@@H]5NC(=O)[C@@H]7CCCN7C(=O)[C@H](C8CCCCC8)NC(=O)[C@H](C)NC)NC [AZD5582] + C[C@@H](Oc1cc(-c2cnn(C3CCNCC3)c2)cnc1N)c1c(Cl)ccc(F)c1Cl [Crizotinib] (partner 1 µM)
The essentials: as §1

Compound in the assay “AZD5582 + AZD7762”: C[C@@H](C(=O)N[C@@H](C1CCCCC1)C(=O)N2CCC[C@H]2C(=O)N[C@@H]3[C@@H](CC4=CC=CC=C34)OCC#CC#CCO[C@@H]5CC6=CC=CC=C6[C@@H]5NC(=O)[C@@H]7CCCN7C(=O)[C@H](C8CCCCC8)NC(=O)[C@H](C)NC)NC [AZD5582] + NC(=O)Nc1cc(-c2cccc(F)c2)sc1C(=O)N[C@H]1CCCNC1 [AZD7762] (partner 0.2 µM)
Conditions: first compound 0.05 µM. In outline:
as §1

Compound in the assay “Temozolomide + Foretinib”: Cn1nnc2c(C(N)=O)ncn2c1=O [Temozolomide] + COc1cc2c(Oc3ccc(NC(=O)C4(C(=O)Nc5ccc(F)cc5)CC4)cc3F)ccnc2cc1OCCCN1CCOCC1 [Foretinib] (partner 0.25 µM)
The essentials:
as §1

Compound in the assay “Temozolomide + AZD7762”: Cn1nnc2c(C(N)=O)ncn2c1=O [Temozolomide] + NC(=O)Nc1cc(-c2cccc(F)c2)sc1C(=O)N[C@H]1CCCNC1 [AZD7762] (partner 0.2 µM)
In outline:
as §1

For the cell line NCI-H1703, the relative viability was 0.815 in the assay with AZD5582 + Lapatinib (first compound 0.001581 µM); 0.691 in the assay with AZD5582 + Lapatinib (first compound 0.005 µM); 1.16 with AZD5582 + Lapatinib (first compound 0.01581 µM); 0.681 in the assay with AZD5582 + Lapatinib (first compound 0.05 µM); 0.463 in the assay with AZD5582 + Crizotinib (first compound 0.001581 µM); 0.428 with AZD5582 + Crizotinib (first compound 0.005 µM). For the same cell line, the relative viability came out at 0.59 with AZD5582 + Crizotinib (first compound 0.01581 µM); 0.459 in the assay with AZD5582 + Crizotinib (first compound 0.05 µM); 0.126 with AZD5582 + AZD7762; 0.297 in the assay with Temozolomide + Foretinib (first compound 0.2 µM); 0.35 with Temozolomide + Foretinib (first compound 0.6325 µM); 0.401 in the assay with Temozolomide + Foretinib (first compound 2 µM). In addition, the relative viability with Temozolomide + Foretinib (first compound 6.325 µM) was 0.281; with Temozolomide + Foretinib (first compound 20 µM), 0.374; with Temozolomide + AZD7762 (first compound 0.2 µM) it was 0.137; with Temozolomide + AZD7762 (first compound 0.6325 µM), 0.1; in the assay with Temozolomide + AZD7762 (first compound 2 µM), 0.125; with Temozolomide + AZD7762 (first compound 6.325 µM), 0.147. For the same cell line, the relative viability with Temozolomide + AZD7762 (first compound 20 µM) was 0.107.
